Assay results reported in PubChem BioAssay (NCI).
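These data come from cells grown in 96-well plates and exposed to compound for 48 hours at five concentrations. GI50: concentration for 50% inhibition of growth. TGI is the concentration that stops growth completely.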

Key:
Assay in all cases: growth of human tumour cells (NCI), 48 h
TK-10 renal = test system: TK-10 renal
HS 578T breast = test system: HS 578T breast
MALME-3M melanoma = test system: MALME-3M melanoma
MDA-N = test system: MDA-N
BT-549 breast = test system: BT-549 breast
NCI-H226 lung = test system: NCI-H226 lung
EKVX NSCLC = test system: EKVX NSCLC
NCI-H460 lung = test system: NCI-H460 lung
786-0 renal = test system: 786-0 renal
OVCAR-3 ovarian = test system: OVCAR-3 ovarian
IGROV1 ovarian = test system: IGROV1 ovarian
K-562 leukemia = test system: K-562 leukemia
SNB-78 CNS = test system: SNB-78 CNS

SMILES	TGI (TK-10 renal)	TGI (HS 578T breast)	TGI (MALME-3M melanoma)	TGI (MDA-N)	TGI (BT-549 breast)	TGI (NCI-H226 lung)	TGI (EKVX NSCLC)	TGI (NCI-H460 lung)	TGI (786-0 renal)	TGI (OVCAR-3 ovarian)	TGI (IGROV1 ovarian)	TGI (K-562 leukemia)	TGI (SNB-78 CNS)	GI50 (NCI-H460 lung)	GI50 (TK-10 renal)	GI50 (OVCAR-3 ovarian)	GI50 (HS 578T breast)	GI50 (K-562 leukemia)	GI50 (BT-549 breast)	GI50 (NCI-H226 lung)
COc1cc(C2S/C(=C/c3ccccc3)C(=O)N2c2ccccc2Cl)cc(OC)c1OC (stereo not given)	> 100 µM	47.5 µM	82.1 µM	84.6 µM	> 100 µM	> 100 µM	50.8 µM													
O=C(O)CN=c1c2ccccc2n(O)c2ccccc12	> 100 µM		> 100 µM			> 100 µM	> 100 µM	> 100 µM	> 100 µM	> 100 µM	> 100 µM	26.9 µM	> 100 µM							
NC(=S)N/N=C/c1ccc(OC(=O)COc2ccccc2Cl)cn1			> 88.7 µM			73.9 µM	97.8 µM	> 100 µM		99.1 µM	> 100 µM	> 100 µM	> 100 µM							
COc1cc(Cc2ccc3c(c2C#N)N(C)c2ccccc2S3)cc(OC)c1OC	> 100 µM		> 100 µM			> 100 µM	> 100 µM	> 100 µM		> 100 µM	> 100 µM	> 100 µM	> 100 µM							
C/C(=N\NC(=S)Nc1ccc(Cl)cc1)c1nc2ncccc2[nH]1	5.12 µM	71.8 µM	15.7 µM	23.1 µM	11.1 µM	8.25 µM	13.1 µM	4.14 µM	29.7 µM	10.5 µM	21.5 µM	44.2 µM								
C/C([O-])=C(/c1nc(-c2ccc([N+](=O)[O-])o2)no1)[n+]1cc(C)ccc1C			28.2 µM			31.6 µM	> 100 µM	17.5 µM		37.7 µM	> 81.6 µM	> 51.9 µM	> 100 µM							
BrC1=CN2C[n+]3cc(Br)c4ccccc4c3N=C2c2ccccc21	55 µM	61 µM	7.14 µM	21.4 µM	37.2 µM			32.9 µM		8.86 µM	32.1 µM	39.5 µM								
Cc1nc(N(CCO)CCO)c2sc(=S)n(-c3ccccc3)c2n1	> 100 µM		> 100 µM			> 100 µM		> 100 µM		> 100 µM	> 100 µM	> 100 µM								
Cc1ncc(CO)c(C=NCCCCCCN=Cc2c(CO)cnc(C)c2O)c1O	> 100 µM	> 100 µM	> 100 µM	> 100 µM	> 100 µM	> 100 µM	> 100 µM	> 100 µM	> 100 µM	> 100 µM	> 100 µM	> 100 µM								
COC(=O)C1=C(O)C(C(=O)OC)[C@@]2(O)[C@@H](C(=O)OC)CC[C@@H]1[C@@H]2C(=O)OC (stereo not given in full)	93.4 µM	33.9 µM	74.3 µM		> 100 µM	70.9 µM	85.7 µM	35.9 µM		58.8 µM		> 100 µM								
COc1cc2nc(N3CCC[C@@H](NC4=CC(=O)c5ccccc5C4=O)C3)nc(N)c2cc1OC	3.85 µM	4.95 µM			4.66 µM	52.7 µM		4.36 µM		3.81 µM		2.36 µM		2.1 µM	2.1 µM	2.03 µM	2.14 µM	0.427 µM	2.1 µM	21.9 µM
